Laboratory results taken from paper PMC9719519, “Non-classical ferroptosis inhibition by a small molecule targeting PHB2” (Nature Communications, 2022).

Legend:
Experiment in all cases: biochemical
Set-up in all cases: Eurofins recombinant human kinase profiling, remaining kinase activity as % of control, 10 uM ATP
Settings in all cases: ATP 10 uM; read-out: %Ctrl@10 μM
[1] = biological target: BTK(h) (Homo sapiens, UniProt Q06187)
Outline: (§1)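 Activity measured in a commercial panel of 401 recombinant human protein kinases run as a kinase profiling service.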

[2] = biological target: T1, CK2α2(h) (Homo sapiens, UniProt P19784)
T1 construct: gene CSNK2A2
Outline: as §1

[3] = biological target: CaMKK1(h) (Homo sapiens, UniProt Q8N5S9)
CaMKK1(h), sequence (Q8N5S9 whole entry): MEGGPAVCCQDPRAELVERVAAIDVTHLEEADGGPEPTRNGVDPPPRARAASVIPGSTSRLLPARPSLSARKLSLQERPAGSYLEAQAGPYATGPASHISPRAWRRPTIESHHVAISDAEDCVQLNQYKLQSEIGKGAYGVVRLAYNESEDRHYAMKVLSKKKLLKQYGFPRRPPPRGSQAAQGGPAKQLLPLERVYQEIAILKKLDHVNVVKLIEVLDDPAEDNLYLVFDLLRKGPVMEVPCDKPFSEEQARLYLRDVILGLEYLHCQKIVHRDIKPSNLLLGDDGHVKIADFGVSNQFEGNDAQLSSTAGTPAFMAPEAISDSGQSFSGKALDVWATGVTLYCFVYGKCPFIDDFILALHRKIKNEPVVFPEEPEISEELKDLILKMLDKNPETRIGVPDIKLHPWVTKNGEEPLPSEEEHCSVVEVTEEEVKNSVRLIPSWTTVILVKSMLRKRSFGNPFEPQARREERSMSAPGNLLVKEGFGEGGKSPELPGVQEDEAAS
Outline: as §1

[4] = biological target: T2, DNA-PK(h) (Homo sapiens, UniProt P78527)
T2 construct: gene PRKDC
Outline: as §1

[5] = biological target: DYRK1A(h) (Homo sapiens, UniProt Q13627)
Outline: as §1

[6] = biological target: EGFR(T790M,L858R)(h) (Homo sapiens, UniProt P00533, L858R/T790M)
EGFR(T790M,L858R)(h), sequence (P00533 whole entry T790M/L858R): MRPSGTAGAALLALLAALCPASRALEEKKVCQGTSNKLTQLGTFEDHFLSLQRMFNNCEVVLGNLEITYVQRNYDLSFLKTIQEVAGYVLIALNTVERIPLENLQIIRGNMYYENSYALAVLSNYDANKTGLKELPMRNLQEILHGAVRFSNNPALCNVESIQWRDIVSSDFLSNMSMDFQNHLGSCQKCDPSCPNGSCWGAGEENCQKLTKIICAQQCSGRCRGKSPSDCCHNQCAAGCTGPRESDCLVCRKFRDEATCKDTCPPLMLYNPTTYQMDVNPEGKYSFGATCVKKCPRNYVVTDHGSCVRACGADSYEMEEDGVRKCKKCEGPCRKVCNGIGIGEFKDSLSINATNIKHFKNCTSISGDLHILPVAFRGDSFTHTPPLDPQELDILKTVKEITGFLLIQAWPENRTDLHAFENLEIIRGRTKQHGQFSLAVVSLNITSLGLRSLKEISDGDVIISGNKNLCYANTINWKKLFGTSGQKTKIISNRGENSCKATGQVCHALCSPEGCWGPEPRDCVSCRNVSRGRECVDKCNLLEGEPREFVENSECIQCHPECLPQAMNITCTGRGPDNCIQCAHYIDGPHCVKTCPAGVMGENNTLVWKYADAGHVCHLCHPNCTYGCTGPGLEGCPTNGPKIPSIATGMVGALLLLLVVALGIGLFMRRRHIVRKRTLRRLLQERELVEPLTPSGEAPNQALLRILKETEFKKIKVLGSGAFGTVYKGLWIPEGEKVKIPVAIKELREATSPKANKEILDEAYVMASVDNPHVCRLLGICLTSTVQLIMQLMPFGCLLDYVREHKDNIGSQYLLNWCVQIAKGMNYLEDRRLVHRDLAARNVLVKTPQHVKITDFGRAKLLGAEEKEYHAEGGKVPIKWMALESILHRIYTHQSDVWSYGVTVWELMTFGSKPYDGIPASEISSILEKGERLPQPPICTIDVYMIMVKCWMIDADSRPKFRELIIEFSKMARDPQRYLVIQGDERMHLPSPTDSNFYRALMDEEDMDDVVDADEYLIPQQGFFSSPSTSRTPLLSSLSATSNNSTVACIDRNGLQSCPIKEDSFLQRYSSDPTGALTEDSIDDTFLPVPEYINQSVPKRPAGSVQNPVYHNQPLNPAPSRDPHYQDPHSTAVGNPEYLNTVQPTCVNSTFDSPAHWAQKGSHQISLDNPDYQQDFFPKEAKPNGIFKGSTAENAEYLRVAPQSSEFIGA
Outline: as §1

[7] = biological target: HIPK4(h) (Homo sapiens, UniProt Q8NE63)
Outline: as §1

[8] = biological target: Hck(h) activated (Homo sapiens, UniProt P08631)
Outline: as §1

[9] = biological target: T3, MEKK3(h) (Homo sapiens, UniProt Q99759)
T3 construct: gene MAP3K3
Outline: as §1

[10] = biological target: MELK(h) (Homo sapiens, UniProt Q14680)
MELK(h), sequence (Q14680 whole entry): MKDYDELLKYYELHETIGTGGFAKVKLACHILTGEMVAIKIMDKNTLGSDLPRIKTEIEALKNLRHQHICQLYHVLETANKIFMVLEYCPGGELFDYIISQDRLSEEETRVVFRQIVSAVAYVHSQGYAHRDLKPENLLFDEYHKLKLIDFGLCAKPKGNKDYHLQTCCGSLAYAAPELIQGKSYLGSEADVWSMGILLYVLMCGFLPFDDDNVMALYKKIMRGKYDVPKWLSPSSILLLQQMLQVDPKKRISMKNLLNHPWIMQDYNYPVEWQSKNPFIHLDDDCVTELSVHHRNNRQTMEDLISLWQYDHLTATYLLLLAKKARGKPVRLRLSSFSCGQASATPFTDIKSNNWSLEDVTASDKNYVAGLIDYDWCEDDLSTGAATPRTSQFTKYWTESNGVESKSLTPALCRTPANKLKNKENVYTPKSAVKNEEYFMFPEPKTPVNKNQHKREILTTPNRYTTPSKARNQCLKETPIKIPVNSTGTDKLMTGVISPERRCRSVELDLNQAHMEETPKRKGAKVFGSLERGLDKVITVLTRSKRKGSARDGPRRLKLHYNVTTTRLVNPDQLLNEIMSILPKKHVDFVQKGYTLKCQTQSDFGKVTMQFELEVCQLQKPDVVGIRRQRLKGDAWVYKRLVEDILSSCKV
Outline: as §1

[11] = biological target: T4, MST3(h) (Homo sapiens, UniProt Q9Y6E0)
T4 construct: gene STK24
T4 sequence (Q9Y6E0 whole entry): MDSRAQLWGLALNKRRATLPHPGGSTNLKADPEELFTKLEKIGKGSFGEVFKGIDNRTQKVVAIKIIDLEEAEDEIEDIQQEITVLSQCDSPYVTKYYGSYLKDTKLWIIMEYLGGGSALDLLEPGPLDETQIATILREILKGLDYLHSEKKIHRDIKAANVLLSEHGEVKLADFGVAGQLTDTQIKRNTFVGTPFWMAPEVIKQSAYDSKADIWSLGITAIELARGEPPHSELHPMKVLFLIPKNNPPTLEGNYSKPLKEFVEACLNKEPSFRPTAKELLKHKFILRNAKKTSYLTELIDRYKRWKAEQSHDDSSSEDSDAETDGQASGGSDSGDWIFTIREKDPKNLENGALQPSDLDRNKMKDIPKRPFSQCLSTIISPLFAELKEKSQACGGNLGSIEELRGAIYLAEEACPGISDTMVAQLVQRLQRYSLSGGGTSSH
Outline: as §1

[12] = biological target: MuSK(h) (Homo sapiens, UniProt O15146)
Outline: as §1

[13] = biological target: T5, PDHK4(h) (Homo sapiens, UniProt Q16654)
T5 construct: gene PDK4
Outline: as §1

[14] = biological target: T6, PEK(h) (Homo sapiens, UniProt Q9NZJ5)
T6 construct: gene EIF2AK3
Outline: as §1

[15] = biological target: T7, PKBβ(h) (Homo sapiens, UniProt P31751)
T7 construct: gene AKT2
T7 sequence (P31751 whole entry): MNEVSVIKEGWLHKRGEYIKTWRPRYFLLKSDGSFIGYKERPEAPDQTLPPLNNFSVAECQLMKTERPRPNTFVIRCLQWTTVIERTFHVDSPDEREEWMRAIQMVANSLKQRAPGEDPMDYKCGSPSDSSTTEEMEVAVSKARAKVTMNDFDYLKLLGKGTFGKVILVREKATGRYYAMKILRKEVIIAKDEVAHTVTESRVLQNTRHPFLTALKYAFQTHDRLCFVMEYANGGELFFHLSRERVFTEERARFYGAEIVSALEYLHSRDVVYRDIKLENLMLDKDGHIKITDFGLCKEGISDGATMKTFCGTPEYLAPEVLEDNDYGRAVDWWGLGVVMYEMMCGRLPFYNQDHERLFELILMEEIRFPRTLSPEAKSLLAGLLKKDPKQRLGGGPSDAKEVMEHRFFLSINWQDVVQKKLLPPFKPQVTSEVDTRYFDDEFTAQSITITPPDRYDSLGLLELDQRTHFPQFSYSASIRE
Outline: as §1

[16] = biological target: T8, SGK(h) (Homo sapiens, UniProt O00141)
T8 construct: gene SGK1
T8 sequence (O00141 whole entry): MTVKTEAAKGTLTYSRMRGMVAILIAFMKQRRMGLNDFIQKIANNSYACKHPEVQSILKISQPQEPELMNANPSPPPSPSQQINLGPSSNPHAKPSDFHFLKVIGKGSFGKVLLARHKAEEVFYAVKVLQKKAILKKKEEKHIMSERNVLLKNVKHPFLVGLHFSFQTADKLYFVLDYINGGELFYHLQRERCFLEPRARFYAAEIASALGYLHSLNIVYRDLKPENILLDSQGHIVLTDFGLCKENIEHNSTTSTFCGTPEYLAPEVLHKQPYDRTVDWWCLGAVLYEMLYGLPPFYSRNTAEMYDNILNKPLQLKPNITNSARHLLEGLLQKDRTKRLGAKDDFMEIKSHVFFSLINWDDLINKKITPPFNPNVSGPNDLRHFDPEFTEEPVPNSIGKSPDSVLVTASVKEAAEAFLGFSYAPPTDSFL
Outline: as §1

[17] = biological target: T9, TAO1(h) (Homo sapiens, UniProt Q7L7X3)
T9 construct: gene TAOK1
Outline: as §1

[18] = biological target: T10, TrkC(h) (Homo sapiens, UniProt Q16288)
T10 construct: gene NTRK3
Outline: as §1

[19] = biological target: ULK2(h) (Homo sapiens, UniProt Q8IYT8)
ULK2(h), sequence (Q8IYT8 whole entry): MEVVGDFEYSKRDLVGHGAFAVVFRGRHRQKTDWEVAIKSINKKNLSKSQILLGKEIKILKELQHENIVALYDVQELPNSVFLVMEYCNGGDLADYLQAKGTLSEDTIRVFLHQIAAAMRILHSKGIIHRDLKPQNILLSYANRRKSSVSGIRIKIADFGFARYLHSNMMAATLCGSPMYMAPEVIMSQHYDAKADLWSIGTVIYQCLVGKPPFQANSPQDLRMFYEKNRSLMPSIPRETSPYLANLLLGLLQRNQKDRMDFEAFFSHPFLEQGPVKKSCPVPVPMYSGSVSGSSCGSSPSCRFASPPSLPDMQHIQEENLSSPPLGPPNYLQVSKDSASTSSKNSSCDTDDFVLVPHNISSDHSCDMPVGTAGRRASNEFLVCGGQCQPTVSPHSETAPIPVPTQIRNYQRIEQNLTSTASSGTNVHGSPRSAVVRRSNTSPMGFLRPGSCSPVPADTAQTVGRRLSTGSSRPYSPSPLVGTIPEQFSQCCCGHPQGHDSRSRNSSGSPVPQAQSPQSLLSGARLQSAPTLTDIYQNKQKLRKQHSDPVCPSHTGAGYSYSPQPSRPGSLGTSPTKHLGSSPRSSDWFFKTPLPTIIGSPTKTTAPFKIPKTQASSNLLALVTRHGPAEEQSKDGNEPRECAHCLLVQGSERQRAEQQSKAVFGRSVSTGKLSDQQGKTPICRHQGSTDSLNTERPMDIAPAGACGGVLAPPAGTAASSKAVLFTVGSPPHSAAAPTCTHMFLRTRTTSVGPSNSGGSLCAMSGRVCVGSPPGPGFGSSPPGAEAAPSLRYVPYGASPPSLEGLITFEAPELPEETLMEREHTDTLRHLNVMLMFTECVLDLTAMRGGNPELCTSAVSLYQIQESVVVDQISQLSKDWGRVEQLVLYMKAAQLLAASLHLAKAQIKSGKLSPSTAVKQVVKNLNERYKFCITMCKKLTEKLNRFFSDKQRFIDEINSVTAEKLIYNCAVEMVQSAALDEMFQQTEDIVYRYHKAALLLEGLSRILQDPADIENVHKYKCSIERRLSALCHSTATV
Outline: as §1

[20] = biological target: WNK4(h) (Homo sapiens, UniProt Q96J92)
Outline: as §1

[21] = biological target: T11, cKit(V560G)(h) (Homo sapiens, UniProt P10721, V560G)
T11 construct: gene KIT
Outline: as §1

[22] = biological target: T12, cKit(V654A)(h) (Homo sapiens, UniProt P10721, V654A)
T12 construct: gene KIT
Outline: as §1

[23] = biological target: T13, cKit(h) (Homo sapiens, UniProt P10721)
T13 construct: gene KIT
Outline: as §1

## C1=C(c2nc(-c3cnn(C4CCNCC4)c3)cn3cc(-c4ccccc4)nc23)CCOC1 [YL-939]
[1]
  remaining activity at 10 µM: 83%
[2]
  remaining activity at 10 µM: 98%
[3]
  remaining activity at 10 µM: 91%
[4]
  remaining activity at 10 µM: 94%
[5]
  remaining activity at 10 µM: 83%
[6]
  remaining activity at 10 µM: 91%
[7]
  remaining activity at 10 µM: 106%
[8]
  remaining activity at 10 µM: 105%
[9]
  remaining activity at 10 µM: 108%
[10]
  remaining activity at 10 µM: 91%
[11]
  remaining activity at 10 µM: 97%
[12]
  remaining activity at 10 µM: 88%
[13]
  remaining activity at 10 µM: 109%
[14]
  remaining activity at 10 µM: 99%
[15]
  remaining activity at 10 µM: 87%
[16]
  remaining activity at 10 µM: 72%
[17]
  remaining activity at 10 µM: 81%
[18]
  remaining activity at 10 µM: 64%
[19]
  remaining activity at 10 µM: 77%
[20]
  remaining activity at 10 µM: 102%
[21]
  remaining activity at 10 µM: 88%
[22]
  remaining activity at 10 µM: 92%
[23]
  remaining activity at 10 µM: 81%
